Results reported in a melting point compilation (Tetko et al.; mined from patent text by program, amines drawn as free bases though some values may be those of a salt).

melting point [°C] | Structure (SMILES)
145 to 146 | O=C(NCO)c1cncc([N+](=O)[O-])c1
181 to 184 | Cc1ncsc1C(O)c1cccc(O)c1 (stereo not given)
263 to 266 | Cc1cccc(NC(=O)NC2CC(c3ccccc3)c3ccccc3N(CC(=O)NC(C)(C)C)C2=O)c1 (stereo not given)
169 to 170 | COc1ccc(Cn2cnc3c(-c4ccco4)ncnc32)cc1C
205 | Oc1ccc2ccc(-c3ccccc3)cc2c1
158 to 159 | CCCCCS(=O)(=O)NC(=O)c1ccc2sc(C)c(Cc3ccc(Cl)cc3Cl)c2c1
195 to 198 | CC(C)c1ccc2c(c1)OC1(O)c3ccccc3C(=O)C21O (stereo not given)
326 | O=C(Oc1cccc2c(OC(=O)c3ccc(O)cc3)c3c(OC(=O)c4ccc(O)cc4)cccc3cc12)c1ccc(O)cc1
230 | Cc1c(Nc2c(C#N)cnc3scc(CO)c23)ccc2[nH]ccc12
170 to 171 | CCC(C)c1ccccc1Sc1c(O)cc(-c2ccccc2)oc1=O (stereo not given)
305 to 306 | Oc1ccc(-c2cc3ccc(O)cc3s2)cc1
135 to 137 | CC(C)(C)c1cc(C(=O)c2cccnc2Cl)cc(C(C)(C)C)c1O
88 to 89 | Cc1c2c(c(CCC=O)c(C(C)C)c1OCc1ccccc1)OC(C)(C)C2
125 to 126 | CC(=O)Nc1cc([N+](=O)[O-])c(Cl)cc1F
160 to 161 | N#CCCNC(=O)c1cccc(-c2ccc3c(c2)N(Cc2cccc(Cl)c2Cl)CC3)c1
138 to 140 | Cn1ncc(CCC(=O)O)c1-c1ccc(Cl)cc1
134 to 135 | Nc1cc(C=O)nc(C2CCC2)c1F
229 to 231 | c1ccc2c(c1)Nc1cc(-c3csc(CN4CCSCC4)n3)ccc1S2
122 to 124 | CCNc1ncccc1C(=O)Nc1c(C)ccnc1Cl
147 | C#CCN(C)c1c(-c2c(F)cc(F)cc2F)c(C#N)nc2ncnn12
115 to 116 | CN1CCN(C(=O)c2ccc(CCc3cc4cc(C#N)ccc4o3)cc2)CC1
144 to 146 | CCCCc1nn(-c2ccccc2C(F)(F)F)c(=O)n1Cc1ccc(-c2ccccc2S(=O)(=O)NC(=O)C(c2ccccc2)c2ccccc2)cc1
224 to 226 | COc1cc(Nc2c(C#N)cnc3cc(-c4csc(CN5CCN(C)CC5)c4)sc23)c(Cl)cc1Cl
127 to 129 | CON1CCC2(CC1)C(=O)C(c1c(C)cc(C)cc1C)([N+](=O)[O-])C(=O)N2C (stereo not given)

melting point [°C] | Structure (SMILES)
> 360 | O=c1c2c(c1=O)Nc1c(cc(Cl)c(Cl)c1Cl)N2
55 | COc1cc(N)c(CCN2CCN(c3nsc4ccccc34)CC2)cc1OC
108 | C[Si](C)(C)C#Cc1cc(Cl)cnc1N
206 to 208 | CC(=O)N1CCc2c(c3ccc(-n4ccc(OCc5ccccc5)cc4=O)nc3n2C)C1
131 to 132 | Cc1c(C)c2c(c(C)c1N)C(c1ccccc1)C(C)(C)O2 (stereo not given)
138 to 139 | CCS(=O)c1ccc(N2CC(CNC(C)=S)OC2=O)cc1F (stereo not given)
314 to 316 | O=c1[nH]c2cc(Cl)cc(Cl)c2c(=O)n1Cc1ccc(I)cc1
105 to 110 | O=C(SCCC(=O)N1C(C(=O)NO)CSC1c1ccccc1O)c1ccccc1 (stereo not given)
261 to 264 | Cc1cc(C)c2ncc(NC(=O)c3cc(C)c(O)c(C)c3C)c(-c3ccccc3Cl)c2c1
87 to 93 | O=[N+]([O-])c1ccc(Oc2ccc(C(F)(F)F)cc2Cl)nc1O
288 to 290 | N=C(N)NC1=NC(=O)C(=Cc2cccc(-c3cc(F)c(O)c(C45CC6CC(CC(C6)C4)C5)c3)c2)S1
108 to 109 | Cc1c(C=CC=O)c2c(c(C)c1OCc1ccccc1)CC(C)(C)O2
207 to 217 | OC1CSC(Oc2ccc(-c3cncc(F)c3)nc2)C(O)C1O (stereo not given)
83 to 87 | c1ccc(CC[C@H]2CNCCN2)nc1
84 to 85 | CC(C)(C)OC(=O)N(C(=O)OC(C)(C)C)c1cc(-c2ccc(N)cc2)n(C(=O)OC(C)(C)C)n1
214 to 217 | CCCN(CCC)C1Cc2cccc(C(=O)O)c2NC1=O (stereo not given)
124 to 126 | CC(C)(C)OC(=O)NCC1CN(c2cccc(Cl)n2)C1
110 to 112 | CS(=O)(=O)c1ncc(-c2ccccc2)c(C(F)(F)F)n1
81.9 to 84.1 | Cc1cc(N(C)C)nc2ccc(Br)cc12
317 to 318 | O=C(O)CCCCOc1ccc2nc3[nH]c(=O)[nH]c3cc2c1
189 to 190 | CNC=Nc1ccc(-c2c[nH]cn2)cc1
32 to 33 | O=C1C=C(Cc2ccccc2)CC1
200 | COC(=O)c1cnc2cccc(O)c2c1

Further lines, the molecule ahead of its results:

Structure (SMILES) | melting point [°C]
CN(CCF)c1nc2cc(NC(=O)c3c(C(=O)N4CCC4)cnn3C)ccn2n1 | 236 to 237
CC[C@H](Nn1c([C@H](C)OC)nnc1[C@H](C)OC)C(OC)OC | 67 to 68
O=C(N[C@@H]1C[C@H]1c1ccccc1)c1ccc2cnccc2n1 (relative stereo) | 123 to 124
Cc1cccc(NC(=O)NC(CC(=O)O)C(=O)N(CC(=O)OC(C)(C)C)c2ccccc2)c1 (racemic) | 198
O=S(=O)(c1ccc(Cl)cc1)c1ccc(NCc2nnn[nH]2)cc1 | 102 to 105
CC(=O)Nc1nc(-c2ccccc2)c(-c2ccnc(Nc3ccccc3)n2)s1 | > 260
COc1ccc(N2C(=O)c3cccc(OC)c3NC2c2ccc(OCCCl)cc2)cc1 (stereo not given) | 122 to 124
COC(=O)c1ccc(Cc2cc3cc(C(F)(F)F)ccc3n2S(=O)(=O)c2ccc3c(c2)N(C)CCO3)cc1 | 63
CC(C)(C)OC(=O)CNC(=O)CC(c1ccccc1)c1ccccc1 | 77 to 81
CCNc1nc(SC)ncc1C=O | 58 to 61
O=c1ccoc2ccc(OCCCCCl)cc12 | 75 to 77
CCCCCCCCOC(=O)C(=C1SCCS1)c1cccc(C(F)(F)F)c1 | 42 to 43
Cc1nc2c3c(c(C(=O)NN4CC4)cc2n1C)CCC(c1ccccc1)N3 (stereo not given) | 192 to 193
C=CCNc1cc(Oc2ccccc2)c(Cl)cc1[N+](=O)[O-] | 81 to 82
Oc1ccccc1-n1cnc(-c2ccccc2)n1 | 148 to 154
Cc1cc(C)cc(NCc2ccc3nc(NCCCN4CC(C)OC(C)C4)n(Cc4nc(C)ccc4O)c3c2)c1 (stereo not given) | 192
CC(=O)N1c2ccc(-c3ccc(C(=O)O)cc3)cc2[C@H](Nc2ccc(Cl)cc2)C[C@@H]1C | 275
C=CCOC(=O)Nc1ccc(N2CCN(N3C=NN(CC(C)(O)c4ccc(Cl)cc4Cl)C3)CC2)cc1 (stereo not given) | 177 to 179
Cc1ccc(S(=O)(=O)N2CCC(c3ccccc3)CC2)cc1 | 153 to 154
COc1ccc(C(=O)NC2N=C(c3ccccc3F)c3ccccc3NC2=O)cc1 (racemic) | 231 to 233
O=C(CCCOc1ccc2nc3[nH]c(=O)[nH]c3cc2c1)N1CCCCC1 | 284 to 286
O=C1CCN(Cc2cc([N+](=O)[O-])ccc2O)CC1C(c1ccc(F)cc1)c1ccc(F)cc1 (stereo not given) | 169 to 170
CCOC(=O)c1ccc(N)c(OCC#N)c1 | 140 to 142
COc1cc(NC(=O)OC(C)(C)C)c([N+](=O)[O-])cc1I | 171
Cc1c(CCl)oc2ccc([N+](=O)[O-])cc12 | 141 to 142
CCCC(CCC)n1nnc2c(Nc3c(Cl)cc(OC)cc3OC)nc(C)cc21 | 157 to 158
CC(C)(C)N[C@@H]1Cc2c(O)cccc2C[C@H]1O (relative stereo) | 123 to 127

Structure (SMILES) | melting point [°C]
CCC(=O)Oc1ccc(-c2oc3cc(OC)cc(OC(=O)CC)c3c(=O)c2OC)cc1OC | 106 to 107
CC12CCC3c4ccc(C(=O)O)cc4CCC3C1CCC2C(=O)c1ccc(Oc2ccccc2)cc1 (stereo not given) | 224 to 225
O[C@H]1COC(c2ccc3c(c2)OCO3)=N[C@@H]1c1ccccc1 (racemic) | 137
CCCC(=O)c1ccc(O)c(OC)c1 | 40 to 41
CC(=NO)C(C)(C)NCC(C)CNC(C)(C)C(Cn1ccnc1[N+](=O)[O-])=NO (stereo not given) | 167 to 168
COc1cccc(N2CCC(NC(C)=O)CC2)n1 | 125 to 127
Cc1ccc(S(=O)(=O)NCCc2cccc(OCC(=O)NCc3ccccc3)c2)cc1 | 118 to 120
O=S1(=O)NCN(C2CC2)c2c(F)cc(F)cc21 | 149 to 151
CNC(=O)Oc1ccc(CN2CCN(c3ccc(C(C)=O)cc3)CC2)cc1OC | 120 to 123
CN1CCN(c2cc(Cl)cc3c2c(=O)n(Cc2ccc(F)cc2)c(=O)n3Cc2ccccc2)CC1 | 110 to 114
CC(C)(C)C(C)(O)C(Cn1cncn1)Oc1ccc(Cl)cc1 (stereo not given) | 150
O=C1CCOc2ccc(OCc3ccc4ccccc4n3)cc21 | 112 to 114
CCOC(=O)c1cn(C)c2nc3cc(N4CC(N(C)C)C4)c(F)cc3cc2c1=O | 224
CCCCCCCC(=O)ON=C(c1ccccc1)c1cc(C(C)(C)C)c(O)c(C(C)(C)C)c1 | 76.3 to 77.2
N#Cc1cc(C#N)cc(Oc2ccnc(Oc3cc(Cl)cc(Cl)c3)n2)c1 | 196
Cc1oc(-c2cc(C(C)(C)C)c(O)c(C(C)(C)C)c2)nc1CC(=O)O | 205 to 206
CNC1C(O)C(OC2C(N)CC(N)C(OC3OC(C(C)O)C(O)C(O)C3N)C2O)OCC1(C)O (stereo not given) | 65
Cc1cc(C)n(C)c1C(=O)c1ccc(Cl)cc1Cl | 96 to 98
O=C(O)c1cccc2c(Br)c(O)ccc12 | > 225
CCOC(=O)c1ocnc1C | 31 to 33
CCCCOc1c2ccccc2c(C=O)c2ccccc12 | 65 to 67
Nc1cccnc1C(=O)NO | 131 to 133
Cc1cc2cn[nH]c2c(C(=O)NC(C)C)c1NC(=O)c1cc(Br)nn1-c1ncccc1Cl | 163 to 166
COCOc1ccccc1-c1cc(-c2cccc(C(=O)OC)c2)c(C#N)c(NC(=O)c2cccs2)n1 | 159 to 160
N#CC(C#N)=Cc1ccccc1F | 117 to 118
Cc1c(C)c2c(c(C)c1O)CCC(C)(C#N)O2 (stereo not given) | 149 to 151
